Active and inactive are the calls of the source. No cut-off for these calls is given here.
Columns and labels:
[1] = Inhibition of PI3K/Akt/mTOR signaling pathway in human SNU-449 cells assessed as reduction in phosphorylation of Akt incubated for 1 hr under normoxia condition by Western blotting analysis; format: cell-based; settings: dose 0.25-1 µM
SNU-475 [2] = experiment: Induction of autophagy in human SNU-475 cells assessed as increased expression of LC3A/B II level incubated for 24 hrs under hypoxia condition by Western blot analysis; format: functional, cell-based; settings: dose 0.1-0.5 µM
Mahlavu [3] = experiment: Induction of apoptosis in human Mahlavu cells assessed as early apoptotic cells at 0.66 uM incubated for 24 hrs by Annexin-V/7-AAD staining based muse cell analyzer method (reference value: 6.57 %); format: functional
[4] = Inhibition of PI3K/Akt/mTOR signaling pathway in human Mahlavu cells assessed as reduction in phosphorylation of Akt at 1 to 10 nM incubated for 1 hr under normoxia condition by Western blotting analysis; format: cell-based; settings: dose 1-10 nM
[5] = Inhibition of PI3K/Akt/mTOR signaling pathway in human SNU-475 cells assessed as reduction in phosphorylation of mTORC1/2 incubated for 1 hr under normoxia condition by Western blotting analysis; format: cell-based; settings: dose 0.25-1 µM
SNU-475 [6] = experiment: Induction of apoptosis in human SNU-475 cells assessed as cleaved PARP level at 0.5 uM incubated for 24 hrs by Western blotting analysis; format: functional, cell-based
Mahlavu [7] = experiment: Induction of autophagy in human Mahlavu cells assessed as decreased expression of SQSTM1/p62 level incubated for 24 hrs under hypoxia condition by Western blot analysis; format: functional, cell-based; settings: dose 0.1-0.5 µM
Hep 3B2 [8] = experiment: Induction of apoptosis in human Hep3B cells assessed as cleaved PARP level at 0.5 uM incubated for 24 hrs by Western blotting analysis; format: functional, cell-based
Mahlavu [9] = experiment: Induction of autophagy in human Mahlavu cells assessed as increase in lipidation of LC3I to LC3II at 0.5 uM incubated for 24 hrs by Western blot analysis; format: functional, cell-based
SNU-449 [10] = experiment: Induction of apoptosis in human SNU-449 cells assessed as necrotic cells at IC50 concentration incubated for 24 hrs in presence of Z-VAD-fmk by Annexin-V/7-AAD staining based muse cell analyzer method (reference value: 0.95 %); format: functional
Mahlavu [11] = experiment: Induction of apoptosis in human Mahlavu cells assessed as viable cells at IC50 incubated for 24 hrs in presence of Z-VAD-fmk by Annexin-V/7-AAD staining based muse cell analyzer method (reference value: 90.52 %); format: functional
Mahlavu [12] = experiment: Cytotoxicity against human Mahlavu cells assessed as reduction in cell viability incubated for 48 hrs by MTT assay; format: functional, cell-based
SNU-475 [13] = experiment: Induction of apoptosis in human SNU-475 cells assessed as cleaved Caspase 7 level at 0.5 uM incubated for 24 hrs by Western blotting analysis; format: functional, cell-based
[14] = Inhibition of PI3K/Akt/mTOR signaling pathway in human Hep3B cells assessed as reduction in phosphorylation of mTORC1/2 incubated for 1 hr under normoxia condition by Western blotting analysis; format: cell-based; settings: dose 0.25-1 µM
Hep 3B2 [15] = experiment: Cytotoxicity against human Hep3B cells assessed as reduction in cell viability at 0.5 uM incubated for 24 hrs in presence of 3-Methyladenine under hypoxia condition by MTT assay; format: functional, cell-based
[16] = Inhibition of PI3K/Akt/mTOR signaling pathway in human Hep3B cells assessed as reduction in phosphorylation of mTORC1 substrate S6 incubated for 1 hr under normoxia condition by Western blotting analysis; format: cell-based; settings: dose 0.25-1 µM
Hep 3B2 [17] = experiment: Induction of apoptosis in human Hep3B cells assessed as cleaved Caspase 9 level at 0.5 uM incubated for 24 hrs by Western blotting analysis; format: functional, cell-based
[18] = Inhibition of PI3K/Akt/mTOR signaling pathway in human SNU-449 cells assessed as reduction in phosphorylation of Akt at 0.001 to 0.01 uM incubated for 1 hr under hypoxia condition by Western blotting analysis; format: cell-based; settings: dose 0.001-0.01 µM
Mahlavu [19] = experiment: Cytotoxicity against human Mahlavu cells assessed as reduction in cell viability at 0.5 uM incubated for 24 hrs in presence of chloroquine under hypoxia condition by MTT assay; format: functional, cell-based
Mahlavu [20] = experiment: Induction of autophagy in human Mahlavu cells assessed as increase in LC3I to LC3II conversion at 0.5 uM incubated for 24 hrs under hypoxia condition by Western blot analysis; format: functional, cell-based
SNU-449 [21] = experiment: Induction of apoptosis in human SNU-449 cells assessed as early apoptotic cells at IC50 concentration incubated for 24 hrs in presence of Z-VAD-fmk by Annexin-V/7-AAD staining based muse cell analyzer method (reference value: 3.95 %); format: functional
[22] = Inhibition of PI3K/Akt/mTOR signaling pathway in human Mahlavu cells assessed as reduction in phosphorylation of mTORC1/2 incubated for 1 hr under normoxia condition by Western blotting analysis; format: cell-based; settings: dose 0.25-1 µM
[23] = target: Hypoxia-inducible factor 1-alpha (Homo sapiens) (UniProt Q16665); experiment: Inhibition of HIF-1alpha in human Mahlavu cells incubated for 6 hrs under hypoxia condition by Western blot analysis; format: cell-based; settings: dose 0.01-0.1 µM
Hep 3B2 [24] = experiment: Induction of cell cycle arrest in human Hep3B cells assessed as decrease in accumulation of cells in G2/M phase incubated at 0.01 to 0.1 uM for 24 hrs by propidium iodide staining based muse cell analysis; format: functional; settings: dose 0.01-0.1 µM
[25] = Inhibition of PI3K/Akt/mTOR signaling pathway in human Mahlavu cells assessed as reduction in phosphorylation of Akt at 1 to 10 nM incubated for 1 hr under hypoxia condition by Western blotting analysis; format: cell-based; settings: dose 1-10 nM
[26] = Inhibition of PI3K/Akt/mTOR signaling pathway in human SNU-449 cells assessed as reduction in phosphorylation of mTORC1/2 incubated for 1 hr under normoxia condition by Western blotting analysis; format: cell-based; settings: dose 0.25-1 µM
Hep 3B2 [27] = experiment: Cytotoxicity against human Hep3B cells assessed as reduction in cell viability incubated for 48 hrs by MTT assay; format: functional, cell-based
SNU-475 [28] = experiment: Induction of autophagy in human SNU-475 cells assessed as reduction in SQSTM1/p62 level by Western blot analysis; format: functional, cell-based; settings: dose 0.1-0.5 µM
SNU-449 [29] = experiment: Induction of apoptosis in human SNU-449 cells assessed as late apoptotic cells at 1.5 uM incubated for 24 hrs by Annexin-V/7-AAD staining based muse cell analyzer method (reference value: 5.03 %); format: functional
SNU-449 [30] = experiment: Induction of apoptosis in human SNU-449 cells assessed as necrotic cells at 1.5 uM incubated for 24 hrs by Annexin-V/7-AAD staining based muse cell analyzer method (reference value: 0.95 %); format: functional
SNU-475 [31] = experiment: Induction of autophagy in human SNU-475 cells assessed as increase expression of LC3 A/B II at 0.5 uM incubated for 24 hrs in presence of chloroquine under hypoxia condition by Western blot analysis; format: functional, cell-based
Mahlavu [32] = experiment: Induction of cell cycle arrest in human Mahlavu cells assessed as increase in accumulation of cells in G0/G1 phase incubated at 0.01 to 0.1 uM for 24 hrs by propidium iodide staining based muse cell analysis; format: functional; settings: dose 0.01-0.1 µM
Hep 3B2 [33] = experiment: Cytotoxicity against human Hep3B cells assessed as reduction in cell viability at 0.5 to 5 uM incubated for 24 hrs by MTT assay; format: functional, cell-based; settings: dose 0.5-5 µM
[34] = Inhibition of PI3K/Akt/mTOR signaling pathway in human HepG2 cells assessed as reduction in phosphorylation of mTORC1 substrate S6 incubated for 1 hr under normoxia condition by Western blotting analysis; format: cell-based; settings: dose 0.25-1 µM

Sequence of Hypoxia-inducible factor 1-alpha (Homo sapiens) (Q16665 whole entry, looked up): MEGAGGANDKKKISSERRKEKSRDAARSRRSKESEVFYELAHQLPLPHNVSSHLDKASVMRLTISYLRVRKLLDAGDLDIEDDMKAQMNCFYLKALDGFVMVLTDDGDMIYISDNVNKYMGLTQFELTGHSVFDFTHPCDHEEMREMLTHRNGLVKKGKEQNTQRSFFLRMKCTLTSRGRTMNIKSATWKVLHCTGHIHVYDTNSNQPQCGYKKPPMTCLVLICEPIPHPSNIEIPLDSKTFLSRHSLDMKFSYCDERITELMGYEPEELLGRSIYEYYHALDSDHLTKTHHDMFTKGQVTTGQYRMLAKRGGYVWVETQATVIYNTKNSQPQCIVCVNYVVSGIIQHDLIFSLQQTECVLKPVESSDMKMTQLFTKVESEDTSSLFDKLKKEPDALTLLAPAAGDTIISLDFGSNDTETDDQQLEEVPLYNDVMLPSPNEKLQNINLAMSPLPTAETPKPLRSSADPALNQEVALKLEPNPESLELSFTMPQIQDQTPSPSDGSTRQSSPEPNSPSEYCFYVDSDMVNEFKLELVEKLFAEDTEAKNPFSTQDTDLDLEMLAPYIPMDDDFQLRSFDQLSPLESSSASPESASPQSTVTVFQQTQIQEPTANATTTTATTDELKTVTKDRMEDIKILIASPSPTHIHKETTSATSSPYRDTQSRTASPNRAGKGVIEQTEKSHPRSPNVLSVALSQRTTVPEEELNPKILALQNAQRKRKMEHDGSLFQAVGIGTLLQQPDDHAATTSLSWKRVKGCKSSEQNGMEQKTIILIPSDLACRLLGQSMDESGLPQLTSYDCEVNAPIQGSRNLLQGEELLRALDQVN

In the case of `COc1ccc(-c2ccc3ncc4c(c3c2)n(-c2ccc(N3CCNCC3)c(C(F)(F)F)c2)c(=O)n4C)cn1` [BGT-226 FREE BASE], the inhibition [1] is reported as “Dose-Dependent Effect”, the Activity (SNU-475 [2]) is reported as “Dose-Dependent Effect” and the Activity (Mahlavu [3]) is reported as 47.22%. The inhibition [4] was “Active”, the inhibition [5] was “Dose-Dependent Effect” and the Activity (SNU-475 [6]) was “Active”. For the same compound, the Activity (Mahlavu [7]) was “Dose-Dependent Effect”, the Activity (Hep 3B2 [8]) was “Active” and the Activity (Mahlavu [9]) was “Active”. The Activity (SNU-449 [10]) was 0.45%, the Activity (Mahlavu [11]) was 81.63% and the IC50 (Mahlavu [12]) was 550 nM. For the same compound, the Activity (SNU-475 [13]) was “Active”, the inhibition [14] was “Dose-Dependent Effect” and the Activity (Hep 3B2 [15]) was “Active”. For the same compound, the inhibition [16] was “Dose-Dependent Effect”, the Activity (Hep 3B2 [17]) was “Active” and the inhibition [18] was “Active”. The Activity (Mahlavu [19]) was “Active”, the Activity (Mahlavu [20]) was “Dose-Dependent Effect” and the Activity (SNU-449 [21]) was 11.94%. For the same compound, the inhibition [22] was “Dose-Dependent Effect”, the inhibition [23] was “Dose-Dependent Effect” and the Activity (Hep 3B2 [24]) was “Active”. The inhibition [25] was “Active”, the inhibition [26] was “Dose-Dependent Effect” and the IC50 (Hep 3B2 [27]) was 1220 nM. For the same compound, the Activity (SNU-475 [28]) was “Dose-Dependent Effect”, the Activity (SNU-449 [29]) was 32.14% and the Activity (SNU-449 [30]) was 1.02%. For the same compound, the Activity (SNU-475 [31]) was “Active”, the Activity (Mahlavu [32]) was “Active” and the Activity (Hep 3B2 [33]) was “Active”. The inhibition [34] was “Dose-Dependent Effect”.

Reference: ChEMBL document CHEMBL5647692, “The novel dual PI3K/mTOR inhibitor NVP-BGT226 displays cytotoxic activity in both normoxic and hypoxic hepatocarcinoma cells” (Oncotarget, 2015)
